Measured values published in PubChem BioAssay AID1259332 (Broad Institute, 2017).
Active and inactive are the calls of the source. How the calls were made is not given here.

What follows are compounds tested on B cell line, CD40 signaling inhibition reporter (assay: inhibitors of CD40 signaling, dose response, B cell lineage (AID 1259332);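 further: cells stimulated with CD40 ligand tCD40L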).
`CCCCCCCCCCCCCCCC[n+]1ccccc1` was tested, and the AC50 was 0.266 µM. `COc1cc2cc(C(=O)N3CC(COS(C)(=O)=O)c4ccc(O)cc43)[nH]c2c(OC)c1OC` (configuration not stated) was tested, and the AC50 was 0.00741 µM. `CC(C)Cc1ccc(C(C)CC2=CCC(CN(C)C)C2=O)cc1` (configuration not stated) was tested, and the AC50 was 3.99 µM. `CN(C)C(=S)SSC(=S)N(C)C` was tested, and the AC50 was 0.152 µM. `CS(=O)(=O)c1ccc(C(=O)OCC(=O)NC(=O)C2COc3ccccc3O2)cc1[N+](=O)[O-]` (configuration not stated) showed an AC50 of 10.2 µM. In the case of `N#C[C@@H]1[C@H](c2ccc(C#CC3CCCC3)cc2)[C@@H](CO)N1C(=O)Nc1ccc(F)cc1`, the AC50 is reported as > 20 µM (inactive). For `CN1C(=O)/C(=N\OC(=O)c2cccc3ccccc23)c2ccccc21`, the AC50 was 1.21 µM. `Cc1ccc(S(=O)(=O)C=CS(=O)(=O)c2ccc(C)cc2)cc1` gave an AC50 of 0.996 µM. Work on `CC1CC(C)(C)Nc2ccc(OC(=O)c3ccco3)cc21` (configuration not stated) yielded an AC50 of 3.23 µM. `CC1=CC(C)(C)N=C(Nc2nc(C)c3cc(C)cc(C)c3n2)N1` was tested, and the AC50 was 3.85 µM. In the case of `COc1ccc2c3c([nH]c2c1)[C@H](CO)N(C(=O)Nc1ccc(F)cc1)CC31CN(Cc2cc(F)ccc2F)C1`, the AC50 is reported as > 20 µM (inactive). In the case of `CC1Cc2ccccc2N1c1ncnc(N)c1[N+](=O)[O-]` (configuration not stated), the AC50 is reported as 7.92 µM. In the case of `O=C(C1CC1)N1C[C@@H]2N[C@H](C1)[C@@H]2c1ccc(-c2ccncc2)cc1`, the AC50 is reported as 5.72 µM. In the case of `Cc1c(CCOC(=O)CC23CC4CC(CC(C)(C4)C2)C3)sc[n+]1CC(=O)c1ccccc1`, the AC50 is reported as 3.22 µM. `O=C1NC2C(=CC(O)C(O)C2O)c2cc3c(c(O)c21)OCO3` (configuration not stated) gave an AC50 of 0.0711 µM. Work on `C1CCC(C(CC2CCCCN2)C2CCCCC2)CC1` (configuration not stated) yielded an AC50 of 2.39 µM. For `CC(C)(C)NCC(=Cc1ccccc1)C(=O)c1ccccc1`, the AC50 was 7.22 µM. Work on `CC[C@@]1(O)C(=O)OCc2c1cc1n(c2=O)Cc2cc3c(CN(C)C)c(O)ccc3nc2-1` yielded an AC50 of 0.9 µM. For `CC1OC(OC2CC(O)C3(CO)C4C(O)CC5(C)C(C6=CC(=O)OC6)CCC5(O)C4CCC3(O)C2)C(O)C(O)C1O` (configuration not stated), the AC50 was 0.405 µM. For `C[C@H]1CN([C@@H](C)CO)C(=O)c2c(c3ccccc3n2C)-c2ccccc2CO[C@@H]1CN(C)Cc1cccc(C(F)(F)F)c1`, the AC50 was 2.17 µM. `CC1CNCCN1S(=O)(=O)c1cccc2cnccc12` (configuration not stated) showed an AC50 of 9.01 µM. With `C[C@@H]1CN([C@@H](C)CO)C(=O)c2c(c3ccccc3n2C)-c2ccccc2CO[C@@H]1CN(C)C(=O)c1cc(Cl)cc(Cl)c1` the AC50 was > 20 µM (inactive). `COc1ccc(CN(CCC(c2ccccc2)c2ccc(OC(C)C)cc2)C(=O)CCl)cc1OC` (configuration not stated) showed an AC50 of 1.68 µM. In the case of `c1ccc2sc(-c3ccc4c(c3)OCO4)nc2c1`, the AC50 is reported as 8.5 µM. Work on `Cn1cnc([N+](=O)[O-])c1S(=O)(=O)Oc1cccc2ccccc12` yielded an AC50 of 0.368 µM. For `COc1ccc2c3c([nH]c2c1)[C@H](CO)N(C(=O)Nc1ccc(F)cc1)CC31CCN(C(=O)c2ccccc2F)CC1`, the AC50 was 6.92 µM. For `COc1cc(C(=O)CCN2CCC(c3ccccc3)C2)cc(OC)c1OC` (configuration not stated), the AC50 was 5.51 µM. Compound `CCN(CC)C(=O)c1ccc(NC(=O)Nc2ccccc2F)cc1` has an AC50 of 2.35 µM. With `C[C@@H]1CN([C@@H](C)CO)C(=O)c2c(c3ccccc3n2C)-c2ccccc2CO[C@@H]1CN(C)C(=O)Nc1ccccc1C(F)(F)F` the AC50 was 9.94 µM. For `N#C[C@@H]1[C@H](c2ccc(C#CC3CCCCC3)cc2)[C@H](CO)N1C(=O)Nc1ccc(F)cc1`, the AC50 was > 20 µM (inactive). `O=C1CC(c2ccc3c(c2)OCO3)Sc2nc3ccccc3n21` (configuration not stated) gave an AC50 of 8.89 µM. Compound `O=C(COC(=O)c1ccccc1C(=O)c1ccc(Cl)c([N+](=O)[O-])c1)NC1CC1` has an AC50 of 1.62 µM. `O=C(Nc1ccc(C(F)(F)F)cc1)N1C[C@@H]2N[C@H](C1)C2c1ccc(-c2ccccc2)cc1` (some centres not stated) showed an AC50 of 7.26 µM. In the case of `O=C(OC1CCOC1=O)c1ccccc1C(=O)c1ccc(Cl)c([N+](=O)[O-])c1` (configuration not stated), the AC50 is reported as > 20 µM (inactive). Compound `CC1=C(C#N)c2nc(N)c(C#N)c(C)c2/C1=C\c1ccccc1` has an AC50 of 4.41 µM. With `CC12CCC3C(CCC4(O)CC(O)CCC34C=O)C1(O)CCC2C1=CC(=O)OC1` (configuration not stated) the AC50 was 3.86 µM. Work on `CC(C)c1ccc(NC(=O)Nc2nc(C(N)COCc3ccccc3)cs2)cc1` (configuration not stated) yielded an AC50 of 2.62 µM. Work on `CC1=NNC(=O)C1Br` (configuration not stated) yielded an AC50 of 7.86 µM. Work on `O=C(C1CCOCC1)N1CC(=O)N2[C@H](C1)[C@H](c1ccc(C#CCc3ccccc3)cc1)[C@@H]2CO` yielded an AC50 of 1.86 µM. With `O=C(c1ccc(F)cc1)N1C[C@@H]2N[C@H](C1)C2c1ccc(/C=C/c2ccccc2)cc1` (some centres not stated) the AC50 was 4.68 µM. With `N#C[C@H]1[C@H](c2ccc(C#Cc3ccccc3F)cc2)[C@@H](CO)N1C(=O)c1cccnc1` the AC50 was 2.93 µM. `COc1ccc(C(=O)CCN2CCc3cc(OC)c(OC)cc3C2)cc1` was tested, and the AC50 was 5.82 µM. `NC(c1ccccc1)c1csc(NC(=O)Nc2cccc(C(F)(F)F)c2)n1` (configuration not stated) was tested, and the AC50 was 6.03 µM. `CCS(=O)(=O)N1[C@H](CO)[C@@H](c2ccc(C#Cc3ccccc3F)cc2)[C@@H]1C#N` was tested, and the AC50 was 4.12 µM. For `CCCC(=O)NC1=C(Cl)C(=O)c2ccccc2C1=O`, the AC50 was 0.935 µM. `C[C@@H]1CN([C@H](C)CO)C(=O)c2ccccc2-c2ccccc2CO[C@@H]1CN(C)C(=O)c1cc(Cl)cc(Cl)c1` showed an AC50 of 7.99 µM. Compound `C[n+]1c(-c2ccccc2)cc2c(=Cc3ccc([N+](=O)[O-])cc3)c3ccccc3n21` has an AC50 of 3.93 µM.
